Target: hTRPA1 (Homo sapiens (Human), UniProt O75762)
Assay: Dose response calcium flux assay (FLIPR), ChanTest hTRPA1-CHO stably transfected cell line
Format: cell-based
Conditions: CHO-K1 Tet-On human TRPA1 cells, cinnamaldehyde agonist (final 100 uM)
Description: IC50 Determinations of Exemplified Compounds Dose Response Assay: Chan Test hTRPA1-CHO Stably Transfected Cell Line
CHO-K1 Tet-On_HOMSA_TRPA1_Clone_20
Chinese Hamster Ovary cells, inducible expression
• Ham's F-12 with 10% tetracycline-free FBS • 1× penicillin-streptomycin • 1× glutamax • 0.01 mg/ml Blasticidin • 0.40 mg/ml Zeocin • The cell line doubling rate was ˜15 hours. […] Experiments were run at 24 hours post induction. Plating Conditions CHOK1/TRPA1 Cells: • Harvested cells with 0.025% trypsin/EDTA. • Resuspended cells in growth media without selection antibiotics. • Measured cell density and diluted to 2.4×10^5 cells/ml in media containing 1 ug/ml Doxycycline Plate 25 ul/well into 384 well black/clear tissue culture-treated plates. • Incubated overnight at 37° C. Calcium Flux Assay: Day of Assay: Reagents: • Replacement Buffer: Hank's Balanced Salt Solution, 20 mM HEPES along with 0.005% BSA and 2× Probenecid • Dye Loading Buffer: Cal-3 NW Calcium dye was prepared by dissolving the contents of one vial with […] Hank's Balanced Salt Solution containing 20 mM HEPES. • Control compounds for CHOK1/TRPA1 cells: AP-18, stock 10 mM, prepare 3.5× compound dilution in a Compound Buffer (HBSS/20 mM HEPES/0.005% BSA)—final concentration 10 uM. • Preparation of Cinnamaldehyde (agonist addition): FW=132.16 • Specific gravity=1.046 gm/cc • 1.32 gm/1.046 gm/cc=1.26 ml of stock • Add 1.74 ml DMSO=3.3 M stock • Working solution 4.5× (final 100 uM in Compound Buffer: HBSS/20 mM HEPES/0.005% BSA) • Compounds dilutions were prepared from 5 or 10 mM stock (100% DMSO): • Adjustments of volumes and concentrations were made at time of titration to reflect desired final assay concentrations. • Compounds were tested at either 20 μM three folds dilution 11 steps out or 30 μM two folds dilution 11 steps out. • 3 μl of diluted compound were transferred into Weidmann 384-well plate in duplicates side-by-side. • Compound plates were resuspended with 100 ul of HBSS/20 mM HEPES/0.005% BSA buffer (Compound Buffer): • column 1A-H: buffer/DMSO (bk) • column 2A-H: AP-18 (control antagonist for CHOK1 TRPA1 cells) • column 1I-P: ATP (control for CHOK1 teton cells) • column 2 I-P: 2APB (control antagonist for CHOK1/TRPM8 cells). Growth media was removed from the cell plates (20 ul) and 20 ul of the Replacement Buffer was added followed by addition of 25 ul of diluted dye. All three steps were performed using a Plate Washer BioTek 407. The plates were then incubated for 30′ at RT.
After incubation, both the cell and compound plates were brought to the FLIPR and 20 ul of the diluted compounds/antagonist/bk were transferred to the cell plates by the FLIPR. Plates were then incubated for 30′ at room temperature. After 30′ incubation, plates were returned to the FLIPR and 20 ul of 4.5× Cinnamaldehyde was added to the cell plates. During the compound addition as well as agonist addition, fluorescence readings were taken simultaneously from all 384 wells of the cell plate every 1.5 seconds. Five readings were taken to establish a stable baseline, then 20 ul of sample was rapidly (30 ul/sec) and simultaneously added to each well of the cell plate. The fluorescence was continuously monitored before, during and after sample/agonist addition for a total elapsed time of 100 seconds (compound addition) and 120 seconds (agonist addition). Responses (increase in peak fluorescence) in each well following agonist addition was determined. The initial fluorescence reading from each well, prior to ligand stimulation, was used a zero baseline value for the data from that well.

Chain of hTRPA1 (O75762 whole entry): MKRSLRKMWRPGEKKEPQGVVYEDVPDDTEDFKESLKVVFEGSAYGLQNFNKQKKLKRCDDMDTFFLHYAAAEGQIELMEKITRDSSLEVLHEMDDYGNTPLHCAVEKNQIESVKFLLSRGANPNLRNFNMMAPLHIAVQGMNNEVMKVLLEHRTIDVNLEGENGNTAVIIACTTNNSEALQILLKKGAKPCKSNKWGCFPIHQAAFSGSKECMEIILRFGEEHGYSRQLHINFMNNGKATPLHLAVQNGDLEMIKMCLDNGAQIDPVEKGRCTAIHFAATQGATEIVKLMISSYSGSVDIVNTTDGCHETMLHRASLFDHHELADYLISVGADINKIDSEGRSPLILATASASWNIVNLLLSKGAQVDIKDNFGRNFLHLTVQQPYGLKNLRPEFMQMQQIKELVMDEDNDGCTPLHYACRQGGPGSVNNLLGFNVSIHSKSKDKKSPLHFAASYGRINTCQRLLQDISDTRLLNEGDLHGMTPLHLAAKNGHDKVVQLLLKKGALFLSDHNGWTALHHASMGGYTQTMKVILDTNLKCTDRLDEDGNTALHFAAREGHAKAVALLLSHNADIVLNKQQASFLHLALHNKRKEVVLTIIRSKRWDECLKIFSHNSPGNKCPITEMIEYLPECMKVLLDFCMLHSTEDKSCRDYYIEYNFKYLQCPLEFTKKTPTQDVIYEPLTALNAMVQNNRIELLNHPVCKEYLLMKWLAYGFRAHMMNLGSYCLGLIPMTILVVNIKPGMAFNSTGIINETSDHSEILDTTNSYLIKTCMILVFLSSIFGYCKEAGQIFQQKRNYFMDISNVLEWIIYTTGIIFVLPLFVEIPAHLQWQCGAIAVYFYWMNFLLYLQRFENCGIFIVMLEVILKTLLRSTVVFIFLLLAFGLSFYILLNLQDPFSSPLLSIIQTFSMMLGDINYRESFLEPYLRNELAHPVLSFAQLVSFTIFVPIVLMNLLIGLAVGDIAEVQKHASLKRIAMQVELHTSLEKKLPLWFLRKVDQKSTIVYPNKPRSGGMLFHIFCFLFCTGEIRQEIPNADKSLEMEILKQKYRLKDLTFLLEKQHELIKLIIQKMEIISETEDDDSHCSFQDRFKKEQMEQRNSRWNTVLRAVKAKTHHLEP

Row | Compound | IC50
1 | COc1cc(CNC(=O)CN(C)S(=O)(=O)c2ccc(F)cc2)cc(-c2ccc(C(F)(F)F)cc2)c1 [Example 43, 2-[(4-Fluoro-benzenesulfonyl)-methyl-amino]-N-(5-methoxy-4′-trifluoromethyl-biphenyl-3-ylmethyl)-acetamide] | 0.38 µM
2 | COc1ccc(CNC(=O)CN(C(C)C)S(=O)(=O)c2ccc(F)cc2)cc1-c1ccc(C(F)(F)F)cc1 [Example 47, 2-[(4-Fluoro-benzenesulfonyl)-isopropyl-amino]-N-(6-methoxy-4′-trifluoromethyl-biphenyl-3-ylmethyl)-acetamide] | 0.041 µM
3 | CN(CC(=O)NCc1cccc(-c2ccc(C(F)(F)F)cc2)c1)S(=O)(=O)c1ccc(F)cc1 [Example 1, 2-[(4-Fluoro-benzenesulfonyl)-methyl-amino]-N-(4′-trifluoromethyl-biphenyl-3-ylmethyl)-acetamide] | 0.081 µM
4 | COCCN(CC(=O)NCc1cc(-c2ccc(C(F)(F)F)cc2)ncn1)S(=O)(=O)c1ccc(F)cc1 [Example 29, 2-[(4-Fluoro-benzenesulfonyl)-(2-methoxy-ethyl)-amino]-N-[6-(4-trifluoromethyl-phenyl)-pyrimidin-4-ylmethyl]-acetamide] | 0.47 µM
5 | O=C(CNS(=O)(=O)c1ccc(F)cc1)NCc1cccc(-c2ccc(C(F)(F)F)cc2)c1 [Example 3, 2-(4-Fluoro-benzenesulfonylamino)-N-(4′-trifluoromethyl-biphenyl-3-ylmethyl)-acetamide] | 1.08 µM
6 | O=C(NCc1cccc(-c2ccc(C(F)(F)F)cc2)c1)C(NS(=O)(=O)c1ccc(F)cc1)C1CC1 (stereo not shown) [Example 24, 2-cyclopropyl-2-(4-fluoro-benzenesulfonylamino)-N-(4′-trifluoromethyl-biphenyl-3-ylmethyl)-acetamide] | 1.03 µM
7 | CC(C)N(CC(=O)NCc1ccc(-c2ccc(C(F)(F)F)cc2)cc1)S(=O)(=O)c1ccc(F)cc1 [Example 33, 2-[(4-Fluoro-benzenesulfonyl)-isopropyl-amino]-N-(4′-trifluoromethyl-biphenyl-4-ylmethyl)-acetamide] | 2.21 µM
8 | CCN(CC(=O)NCc1ccc(-c2ccc(C(F)(F)F)cc2)cc1)S(=O)(=O)c1ccc(F)cc1 [Example 17, 2-[Ethyl-(4-fluoro-benzenesulfonyl)-amino]-N-(4′-trifluoromethyl-biphenyl-4-ylmethyl)-acetamide] | 4.83 µM
9 | CC(C)N(CC(=O)NCc1cc(-c2ccc(C(F)(F)F)cc2)ccc1F)S(=O)(=O)c1ccc(F)cc1 [Example 37, 2-[(4-Fluoro-benzenesulfonyl)-isopropyl-amino]-N-(4-fluoro-4′-trifluoromethyl-biphenyl-3-ylmethyl)-acetamide] | 0.014 µM
10 | O=C(CN(C1CC1)S(=O)(=O)c1ccc(F)cc1)NCc1cccc(-c2ccc(C(F)(F)F)cc2)c1 [Example 22, 2-[Cyclopropyl-(4-fluoro-benzenesulfonyl)-amino]-N-(4′-trifluoromethyl-biphenyl-3-ylmethyl)-acetamide] | 0.19 µM
11 | C[C@H](C(=O)NCc1cc(-c2ccc(C(F)(F)F)cc2)ncn1)N(C)S(=O)(=O)c1ccc(F)cc1 [Example 38, (R)-2-[(4-Fluoro-benzenesulfonyl)-methyl-amino]-N-[6-(4-trifluoromethyl-phenyl)-pyrimidin-4-ylmethyl]-propionamide] | 0.064 µM
12 | O=C(CN(CC1COC1)S(=O)(=O)c1ccc(F)cc1)NCc1cccc(-c2ccc(C(F)(F)F)cc2)c1 [Example 54, 2-[(4-Fluoro-benzenesulfonyl)-oxetan-3-ylmethyl-amino]-N-(4′-trifluoron-3-ylmethyl-amino]-N-(4′-trifluoromethyl-biphenyl-3-ylmethyl)-acetamide] | 1.76 µM
13 | CC(C)N(CC(=O)NCc1cc(F)cc(-c2ccc(C(F)(F)F)nc2)c1)S(=O)(=O)c1ccc(F)cc1 [Example 63, 2-[(4-Fluoro-benzenesulfonyl)-isopropyl-amino]-N-[3-fluoro-5-(6-trifluoromethyl-pyridin-3-yl)-benzyl]-acetamide] | 0.038 µM
14 | CCN(CC(=O)NCc1cc(OC)cc(-c2ccc(C(F)(F)F)cc2)c1)S(=O)(=O)c1ccc(F)cc1 [Example 44, 2-[Ethyl-(4-fluoro-benzenesulfonyl)-amino]-N-(5-methoxy-4′-trifluoromethyl-biphenyl-3-ylmethyl)-acetamide] | 0.087 µM
15 | CC(C)N(CC(=O)NCc1cccc(-c2ccc(C(F)(F)F)cn2)c1)S(=O)(=O)c1ccc(F)cc1 [Example 40, 2-[(4-Fluoro-benzenesulfonyl)-isopropyl-amino]-N-[3-(5-trifluoromethyl-pyridin-2-yl)-benzyl]-acetamide] | 0.067 µM
16 | CC(C)N(CC(=O)NCc1cc(-c2ccc(C(F)(F)F)nc2)ccn1)S(=O)(=O)c1ccc(F)cc1 [Example 55, 2-[(4-Fluoro-benzenesulfonyl)-isopropyl-amino]-N-(6-trifluoromethyl-[3,4′]bipyridinyl-2′-ylmethyl)-acetamide] | 0.13 µM
17 | O=C(CN(CCO)S(=O)(=O)c1ccc(F)cc1)NCc1cccc(-c2ccc(C(F)(F)F)cc2)c1 [Example 19, 2-[(4-Fluoro-benzenesulfonyl)-(2-hydroxy-ethyl)-amino]-N-(4′-trifluoromethyl-biphenyl-3-ylmethyl)-acetamide] | 0.098 µM
18 | CN(CC(=O)NCc1cc(-c2ccc(C(F)(F)F)cc2)ncn1)S(=O)(=O)c1ccc(Cl)s1 [Example 25, 2-[(5-chloro-thiophene-2-sulfonyl)-methyl-amino]-N-[6-(4-trifluoromethyl-phenyl)-pyrimidin-4-ylmethyl]-acetamide] | 0.042 µM
19 | COC[C@@H](C(=O)NCc1cccc(-c2ccc(C(F)(F)F)cc2)c1)N(C)S(=O)(=O)c1ccc(F)cc1 [Example 52, (S)-2-[(4-Fluoro-benzenesulfonyl)-methyl-amino]-3-methoxy-N-(4′-trifluoromethyl-biphenyl-3-ylmethyl)-propionamide] | 0.098 µM
20 | CN(CC(=O)NCc1cc(F)cc(-c2ccc(C(F)(F)F)cc2)c1)S(=O)(=O)c1ccc(F)cc1 [Example 11, 2-[(4-Fluoro-benzenesulfonyl)-methyl-amino]-N-(5-fluoro-4′-trifluoromethyl-biphenyl-3-ylmethyl)-acetamide] | 0.13 µM
21 | CC(C)N(CC(=O)NCc1cc(-c2ccc(C(F)(F)F)nc2)ncn1)S(=O)(=O)c1ccc(Cl)s1 [Example 76, 2-[(5-Chloro-thiophene-2-sulfonyl)-isopropyl-amino]-N-[6-(6-trifluoromethyl-pyridin-3-yl)-pyrimidin-4-ylmethyl]-acetamide] | 0.02 µM
22 | CC(C)[C@@H](C(=O)NCc1cccc(-c2ccc(C(F)(F)F)cc2)c1)N(C)S(=O)(=O)c1ccc(F)cc1 [Example 5, (S)-2-[(4-Fluoro-benzenesulfonyl)-methyl-amino]-3-methyl-N-(4′-trifluoromethyl-biphenyl-3-ylmethyl)-butyramide] | 1.62 µM
23 | CCN(CC(=O)NCc1cccc(-c2ccc(C(F)(F)F)cn2)c1)S(=O)(=O)c1ccc(F)cc1 [Example 42, 2-[Ethyl-(4-fluoro-benzenesulfonyl)-amino]-N-[3-(5-trifluoromethyl-pyridin-2-yl)-benzyl]-acetamide] | 0.084 µM
24 | CC(C)(C)N(CC(=O)NCc1cc(-c2ccc(C(F)(F)F)cc2)ncn1)S(=O)(=O)c1ccc(F)cc1 [Example 31, 2-[tert-Butyl-(4-fluoro-benzenesulfonyl)-amino]-N-[6-(4-trifluoromethyl-phenyl)-pyrimidin-4-ylmethyl]-acetamide] | 0.38 µM
25 | CCN(CC(=O)NCc1cc(-c2ccc(C(F)(F)F)cc2)ccc1F)S(=O)(=O)c1ccc(F)cc1 [Example 16, 2-[Ethyl-(4-fluoro-benzenesulfonyl)-amino]-N-(4-fluoro-4′-trifluoromethyl-biphenyl-3-ylmethyl)-acetamide] | 0.024 µM

Source: patent US9580411B2, “Substituted sulfonamide compounds” (Hoffmann-La Roche Inc., priority 2012, dated 2017)
